Reference: PubChem BioAssay AID2060328 (Molecular Pharmacology Branch, DTP, NCI, 2025)

System: MDA-MB-231 multicell spheroids, viability (%T/C)
Assay: Anticancer human tumor MDA-MB-231 cell line growth inhibition [IpAb];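 note: viability read after seven days of drug exposure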;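 for viability, T/C: 100% = DMSO vehicle control viability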
Details: for IC50: curve of first compound; for viability, T/C: stronger effect = lower value
In short: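 Multi-cell spheroids of 60% tumour cells, 25% HUVEC and 15% MSC in ultra-low-attachment U-bottom wells, treated with agents combined with ipatasertib or abemaciclib. Half-log ranges top out near clinical Cmax, or 10 microM when Cmax is unknown.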

[1] = second compound 0.01 µM, first compound 0.00316 µM
[2] = second compound 0.01 µM, first compound 0.01 µM
[3] = second compound 0.01 µM, first compound 0.0316 µM
[4] = second compound 0.01 µM, first compound 0.1 µM
[5] = second compound 0.0316 µM, first compound 0.00316 µM
[6] = second compound 0.0316 µM, first compound 0.01 µM
[7] = second compound 0.0316 µM, first compound 0.0316 µM
[8] = second compound 0.0316 µM, first compound 0.1 µM
[9] = second compound 0.1 µM, first compound 0.00316 µM
[10] = second compound 0.1 µM, first compound 0.01 µM
[11] = second compound 0.1 µM, first compound 0.0316 µM
[12] = second compound 0.1 µM, first compound 0.1 µM
[13] = second compound 0.316 µM, first compound 0.00316 µM
[14] = second compound 0.316 µM, first compound 0.01 µM
[15] = second compound 0.316 µM, first compound 0.0316 µM
[16] = second compound 0.316 µM, first compound 0.1 µM
[17] = second compound 1 µM, first compound 0.00316 µM
[18] = second compound 1 µM, first compound 0.01 µM
[19] = second compound 1 µM, first compound 0.0316 µM
[20] = second compound 1 µM, first compound 0.1 µM
[21] = second compound 0.01 µM, first compound 0.316 µM
[22] = second compound 0.01 µM, first compound 1 µM
[23] = second compound 0.01 µM, first compound 3.16 µM
[24] = second compound 0.01 µM, first compound 10 µM
[25] = second compound 0.0316 µM, first compound 0.316 µM
[26] = second compound 0.0316 µM, first compound 1 µM
[27] = second compound 0.0316 µM, first compound 3.16 µM
[28] = second compound 0.0316 µM, first compound 10 µM
[29] = second compound 0.1 µM, first compound 0.316 µM
[30] = second compound 0.1 µM, first compound 1 µM
[31] = second compound 0.1 µM, first compound 3.16 µM
[32] = second compound 0.1 µM, first compound 10 µM
[33] = second compound 0.316 µM, first compound 0.316 µM
[34] = second compound 0.316 µM, first compound 1 µM
[35] = second compound 0.316 µM, first compound 3.16 µM
[36] = second compound 0.316 µM, first compound 10 µM
[37] = second compound 1 µM, first compound 0.316 µM
[38] = second compound 1 µM, first compound 1 µM
[39] = second compound 1 µM, first compound 3.16 µM
[40] = second compound 1 µM, first compound 10 µM

Compound | IC50 (second compound 0.01 µM) [nM] | IC50 (second compound 0.0316 µM) [nM] | IC50 (second compound 0.1 µM) [nM] | IC50 (second compound 0.316 µM) [nM] | IC50 (second compound 1 µM) [nM] | viability, T/C [3] [%] | viability, T/C [4] [%] | viability, T/C [7] [%] | viability, T/C [8] [%] | viability, T/C [11] [%] | viability, T/C [12] [%] | viability, T/C [15] [%] | viability, T/C [16] [%] | viability, T/C [19] [%] | viability, T/C [20] [%] | viability, T/C [21] [%] | viability, T/C [22] [%] | viability, T/C [25] [%] | viability, T/C [26] [%] | viability, T/C [29] [%] | further results
CC(C)n1nc(-c2ccc3oc(N)nc3c2)c2c(N)ncnc21 + CCN1CCN(Cc2ccc(Nc3ncc(F)c(-c4cc(F)c5nc(C)n(C(C)C)c5c4)n3)nc2)CC1 | 7.66 | 2.71 | 0.66 | < 0.316 | < 0.316 | 34.6 | 32.3 | 28.8 | 26.8 | 27.6 | 27.6 | 29.6 | 29.3 | 47.4 | 49.8 |  |  |  |  |  | viability, T/C (second compound 0.01 µM, first compound 0.000316 µM): 90.3%; viability, T/C (second compound 0.01 µM, first compound 0.001 µM): 85.6%; viability, T/C [1]: 65.5%; viability, T/C [2]: 45.9%; viability, T/C (second compound 0.0316 µM, first compound 0.000316 µM): 73.7%; viability, T/C (second compound 0.0316 µM, first compound 0.001 µM): 64.5%; viability, T/C [5]: 48.2%; viability, T/C [6]: 33.1%; viability, T/C (second compound 0.1 µM, first compound 0.000316 µM): 55.1%; viability, T/C (second compound 0.1 µM, first compound 0.001 µM): 47%; viability, T/C [9]: 37.4%; viability, T/C [10]: 30.2%; viability, T/C (second compound 0.316 µM, first compound 0.000316 µM): 41.7%; viability, T/C (second compound 0.316 µM, first compound 0.001 µM): 38%; viability, T/C [13]: 31.4%; viability, T/C [14]: 30.1%; viability, T/C (second compound 1 µM, first compound 0.000316 µM): 47.1%; viability, T/C (second compound 1 µM, first compound 0.001 µM): 45%; viability, T/C [17]: 39.8%; viability, T/C [18]: 45.4%
CC1(C)CCC(CN2CCN(c3ccc(C(=O)NS(=O)(=O)c4ccc(NCC5CCOCC5)c([N+](=O)[O-])c4)c(Oc4cnc5[nH]ccc5c4)c3)CC2)=C(c2ccc(Cl)cc2)C1 + CCN1CCN(Cc2ccc(Nc3ncc(F)c(-c4cc(F)c5nc(C)n(C(C)C)c5c4)n3)nc2)CC1 | 5850 | 5150 | 4260 | < 31.6 | 3220 | 102 | 97.5 | 86.7 | 81.8 | 64.2 | 66.6 | 50.5 | 50.4 | 48.2 | 52.7 | 100 | 101 | 82.2 | 83.2 | 63.9 | viability, T/C [23]: 94.8%; viability, T/C [24]: 11%; viability, T/C [27]: 78.6%; viability, T/C [28]: 11.2%; viability, T/C [30]: 65%; viability, T/C [31]: 66.4%; viability, T/C [32]: 6.54%; viability, T/C [33]: 48.2%; viability, T/C [34]: 47.9%; viability, T/C [35]: 44.8%; viability, T/C [36]: 7.02%; viability, T/C [37]: 52.9%; viability, T/C [38]: 53.4%; viability, T/C [39]: 50.7%; viability, T/C [40]: 7.14%
CCCS(=O)(=O)Nc1ccc(F)c(C(=O)c2c[nH]c3ncc(-c4ccc(Cl)cc4)cc23)c1F + CCN1CCN(Cc2ccc(Nc3ncc(F)c(-c4cc(F)c5nc(C)n(C(C)C)c5c4)n3)nc2)CC1 | 6840 | 4640 | 2900 | 887 | 550 | 105 | 104 | 82.9 | 87.4 | 70.5 | 66.4 | 52.8 | 53.5 | 51.9 | 55 | 110 | 93.9 | 86.4 | 80.2 | 66.6 | viability, T/C [23]: 70.5%; viability, T/C [24]: 40.1%; viability, T/C [27]: 57.6%; viability, T/C [28]: 34.9%; viability, T/C [30]: 62.8%; viability, T/C [31]: 48.8%; viability, T/C [32]: 32.9%; viability, T/C [33]: 51%; viability, T/C [34]: 47.8%; viability, T/C [35]: 44.3%; viability, T/C [36]: 23.4%; viability, T/C [37]: 53.1%; viability, T/C [38]: 45.6%; viability, T/C [39]: 43.8%; viability, T/C [40]: 32.6%
COc1c(OCCCN2CCOCC2)ccc2c3n(c(=NC(=O)c4cnc(N)nc4)nc12)CCN3 + CCN1CCN(Cc2ccc(Nc3ncc(F)c(-c4cc(F)c5nc(C)n(C(C)C)c5c4)n3)nc2)CC1 | 24 | 14.6 | 4.68 | < 3.16 | < 3.16 | 50.2 | 37.7 | 43.9 | 34.1 | 36.6 | 31.1 | 35.2 | 31.7 | 46.8 | 44.8 | 31.7 | 37.7 | 29.7 | 38.5 | 29.1 | viability, T/C [1]: 81.7%; viability, T/C [2]: 59%; viability, T/C [5]: 65.5%; viability, T/C [6]: 53.1%; viability, T/C [9]: 53.7%; viability, T/C [10]: 44.2%; viability, T/C [30]: 43.4%; viability, T/C [13]: 46.4%; viability, T/C [14]: 41.6%; viability, T/C [33]: 34.4%; viability, T/C [34]: 67.5%; viability, T/C [17]: 53%; viability, T/C [18]: 48.6%; viability, T/C [37]: 55.1%; viability, T/C [38]: 128%
